Test results taken from ChEMBL document CHEMBL3046405, “Knockdown of several components of cytochrome P450 enzyme systems by RNA interference enhances the susceptibility of Helicoverpa armigera to fenvalerate” (2012).

Columns and labels:
Type in all cases: functional
Helicoverpa armigera [1] = experiment: Insecticidal activity against fenvalerate-resistant Helicoverpa armigera HDFR third-instar larvae injected with dsCYP6B7-313-1 dsRNA plus dsCPR-403-1 dsRNA and dsCyt-b5-4 dsRNA assessed as compound level per larva causing mortality after 12 hr
Helicoverpa armigera [2] = experiment: Insecticidal activity against fenvalerate-resistant Helicoverpa armigera HDFR third-instar larvae injected with dsCYP6B7-313-1 dsRNA plus dsCyt-b5-4 dsRNA assessed as compound level per larva causing mortality after 12 hr
Helicoverpa armigera [3] = experiment: Insecticidal activity against fenvalerate-resistant Helicoverpa armigera HDFR third-instar larvae injected with dsCYP6B7-313-1 dsRNA plus dsCPR-403-1 dsRNA assessed as compound level per larva causing mortality after 12 hr
Helicoverpa armigera [4] = experiment: Insecticidal activity against fenvalerate-resistant Helicoverpa armigera HDFR third-instar larvae injected with dsCYP6B7-313-1 dsRNA assessed as compound level per larva causing mortality after 12 hr
Helicoverpa armigera [5] = experiment: Insecticidal activity against fenvalerate-resistant Helicoverpa armigera HDFR third-instar larvae injected with TE buffer assessed as compound level per larva causing mortality after 12 hr
Helicoverpa armigera [6] = experiment: Insecticidal activity against fenvalerate-resistant Helicoverpa armigera HDFR third-instar larvae without dsRNA injection assessed as compound level per larva causing mortality after 12 hr
Helicoverpa armigera [7] = experiment: Resistance index, ratio of LD50 for fenvalerate-resistant Helicoverpa armigera HDFR third-instar larvae to LD50 for fenvalerate-susceptible Helicoverpa armigera third-instar larvae
Helicoverpa armigera [8] = experiment: Insecticidal activity against fenvalerate-resistant Helicoverpa armigera HDFR third-instar larvae assessed as compound level per larva causing mortality after 48 hr
Helicoverpa armigera [9] = experiment: Insecticidal activity against fenvalerate-susceptible Helicoverpa armigera third-instar larvae assessed as compound level per larva causing mortality after 48 hr
Helicoverpa armigera [10] = experiment: Insecticidal activity against fenvalerate-resistant Helicoverpa armigera HDFR third-instar larvae injected with dsCYP6B7-313-1 dsRNA plus dsCPR-403-1 dsRNA and dsCyt-b5-4 dsRNA assessed as insect mortality at 4 to 16 ug/larva after 48 hr (fenvalerate alone control = 29.1 to 50.0%)
Helicoverpa armigera [11] = experiment: Insecticidal activity against fenvalerate-resistant Helicoverpa armigera HDFR third-instar larvae injected with dsCYP6B7-313-1 dsRNA plus dsCyt-b5-4 dsRNA assessed as insect mortality at 4 to 16 ug/larva after 48 hr (fenvalerate alone control = 29.1 to 50.0%)
Helicoverpa armigera [12] = experiment: Potency index, ratio of LD50 for fenvalerate-resistant Helicoverpa armigera HDFR third-instar larvae injected with TE buffer to LD50 for fenvalerate-resistant Helicoverpa armigera HDFR third-instar larvae injected with dsCYP6B7-313-1 dsRNA after 24 hr
Helicoverpa armigera [13] = experiment: Insecticidal activity against fenvalerate-resistant Helicoverpa armigera HDFR third-instar larvae injected with dsCYP6B7-313-1 dsRNA plus dsCPR-403-1 dsRNA assessed as insect mortality at 4 to 16 ug/larva after 48 hr (fenvalerate alone control = 29.1 to 50.0%)
Helicoverpa armigera [14] = experiment: Insecticidal activity against fenvalerate-resistant Helicoverpa armigera HDFR third-instar larvae injected with dsCYP6B7-313-1 dsRNA assessed as insect mortality at 4 to 16 ug/larva after 48 hr (fenvalerate alone control = 29.1 to 50.0%)
Helicoverpa armigera [15] = experiment: Potency index, ratio of LD50 for fenvalerate-resistant Helicoverpa armigera HDFR third-instar larvae injected with TE buffer to LD50 for fenvalerate-resistant Helicoverpa armigera HDFR third-instar larvae injected with dsCYP6B7-313-1 dsRNA plus dsCPR-403-1 dsRNA and dsCyt-b5-4 dsRNA after 48 hr
Helicoverpa armigera [16] = experiment: Potency index, ratio of LD50 for fenvalerate-resistant Helicoverpa armigera HDFR third-instar larvae injected with TE buffer to LD50 for fenvalerate-resistant Helicoverpa armigera HDFR third-instar larvae injected with dsCYP6B7-313-1 dsRNA plus dsCyt-b5-4 dsRNA after 48 hr
Helicoverpa armigera [17] = experiment: Potency index, ratio of LD50 for fenvalerate-resistant Helicoverpa armigera HDFR third-instar larvae injected with TE buffer to LD50 for fenvalerate-resistant Helicoverpa armigera HDFR third-instar larvae injected with dsCYP6B7-313-1 dsRNA plus dsCPR-403-1 after 48 hr
Helicoverpa armigera [18] = experiment: Potency index, ratio of LD50 for fenvalerate-resistant Helicoverpa armigera HDFR third-instar larvae injected with TE buffer to LD50 for fenvalerate-resistant Helicoverpa armigera HDFR third-instar larvae injected with dsCYP6B7-313-1 dsRNA after 48 hr
Helicoverpa armigera [19] = experiment: Potency index, ratio of LD50 for fenvalerate-resistant Helicoverpa armigera HDFR third-instar larvae injected with TE buffer to LD50 for fenvalerate-resistant Helicoverpa armigera HDFR third-instar larvae injected with dsCYP6B7-313-1 dsRNA plus dsCPR-403-1 dsRNA and dsCyt-b5-4 dsRNA after 36 hr
Helicoverpa armigera [20] = experiment: Potency index, ratio of LD50 for fenvalerate-resistant Helicoverpa armigera HDFR third-instar larvae injected with TE buffer to LD50 for fenvalerate-resistant Helicoverpa armigera HDFR third-instar larvae injected with dsCYP6B7-313-1 dsRNA plus dsCyt-b5-4 dsRNA after 36 hr
Helicoverpa armigera [21] = experiment: Potency index, ratio of LD50 for fenvalerate-resistant Helicoverpa armigera HDFR third-instar larvae injected with TE buffer to LD50 for fenvalerate-resistant Helicoverpa armigera HDFR third-instar larvae injected with dsCYP6B7-313-1 dsRNA plus dsCPR-403-1 after 36 hr
Helicoverpa armigera [22] = experiment: Potency index, ratio of LD50 for fenvalerate-resistant Helicoverpa armigera HDFR third-instar larvae injected with TE buffer to LD50 for fenvalerate-resistant Helicoverpa armigera HDFR third-instar larvae injected with dsCYP6B7-313-1 dsRNA after 36 hr
Helicoverpa armigera [23] = experiment: Potency index, ratio of LD50 for fenvalerate-resistant Helicoverpa armigera HDFR third-instar larvae injected with TE buffer to LD50 for fenvalerate-resistant Helicoverpa armigera HDFR third-instar larvae injected with dsCYP6B7-313-1 dsRNA plus dsCPR-403-1 dsRNA and dsCyt-b5-4 dsRNA after 24 hr
Helicoverpa armigera [24] = experiment: Potency index, ratio of LD50 for fenvalerate-resistant Helicoverpa armigera HDFR third-instar larvae injected with TE buffer to LD50 for fenvalerate-resistant Helicoverpa armigera HDFR third-instar larvae injected with dsCYP6B7-313-1 dsRNA plus dsCyt-b5-4 dsRNA after 24 hr
Helicoverpa armigera [25] = experiment: Potency index, ratio of LD50 for fenvalerate-resistant Helicoverpa armigera HDFR third-instar larvae injected with TE buffer to LD50 for fenvalerate-resistant Helicoverpa armigera HDFR third-instar larvae injected with dsCYP6B7-313-1 dsRNA plus dsCPR-403-1 after 24 hr
Helicoverpa armigera [26] = experiment: Potency index, ratio of LD50 for fenvalerate-resistant Helicoverpa armigera HDFR third-instar larvae injected with TE buffer to LD50 for fenvalerate-resistant Helicoverpa armigera HDFR third-instar larvae injected with dsCYP6B7-313-1 dsRNA plus dsCPR-403-1 dsRNA and dsCyt-b5-4 dsRNA after 12 hr
Helicoverpa armigera [27] = experiment: Potency index, ratio of LD50 for fenvalerate-resistant Helicoverpa armigera HDFR third-instar larvae injected with TE buffer to LD50 for fenvalerate-resistant Helicoverpa armigera HDFR third-instar larvae injected with dsCYP6B7-313-1 dsRNA plus dsCyt-b5-4 dsRNA after 12 hr
Helicoverpa armigera [28] = experiment: Potency index, ratio of LD50 for fenvalerate-resistant Helicoverpa armigera HDFR third-instar larvae injected with TE buffer to LD50 for fenvalerate-resistant Helicoverpa armigera HDFR third-instar larvae injected with dsCYP6B7-313-1 dsRNA plus dsCPR-403-1 after 12 hr
Helicoverpa armigera [29] = experiment: Potency index, ratio of LD50 for fenvalerate-resistant Helicoverpa armigera HDFR third-instar larvae injected with TE buffer to LD50 for fenvalerate-resistant Helicoverpa armigera HDFR third-instar larvae injected with dsCYP6B7-313-1 dsRNA after 12 hr
Helicoverpa armigera [30] = experiment: Insecticidal activity against fenvalerate-resistant Helicoverpa armigera HDFR third-instar larvae injected with dsCYP6B7-313-1 dsRNA plus dsCPR-403-1 dsRNA and dsCyt-b5-4 dsRNA assessed as compound level per larva causing mortality after 48 hr
Helicoverpa armigera [31] = experiment: Insecticidal activity against fenvalerate-resistant Helicoverpa armigera HDFR third-instar larvae injected with dsCYP6B7-313-1 dsRNA plus dsCyt-b5-4 dsRNA assessed as compound level per larva causing mortality after 48 hr
Helicoverpa armigera [32] = experiment: Insecticidal activity against fenvalerate-resistant Helicoverpa armigera HDFR third-instar larvae injected with dsCYP6B7-313-1 dsRNA plus dsCPR-403-1 dsRNA assessed as compound level per larva causing mortality after 48 hr
Helicoverpa armigera [33] = experiment: Insecticidal activity against fenvalerate-resistant Helicoverpa armigera HDFR third-instar larvae injected with dsCYP6B7-313-1 dsRNA assessed as compound level per larva causing mortality after 48 hr
Helicoverpa armigera [34] = experiment: Insecticidal activity against fenvalerate-resistant Helicoverpa armigera HDFR third-instar larvae injected with TE buffer assessed as compound level per larva causing mortality after 48 hr
Helicoverpa armigera [35] = experiment: Insecticidal activity against fenvalerate-resistant Helicoverpa armigera HDFR third-instar larvae without dsRNA injection assessed as compound level per larva causing mortality after 48 hr
Helicoverpa armigera [36] = experiment: Insecticidal activity against fenvalerate-resistant Helicoverpa armigera HDFR third-instar larvae injected with dsCYP6B7-313-1 dsRNA plus dsCPR-403-1 dsRNA and dsCyt-b5-4 dsRNA assessed as compound level per larva causing mortality after 36 hr
Helicoverpa armigera [37] = experiment: Insecticidal activity against fenvalerate-resistant Helicoverpa armigera HDFR third-instar larvae injected with dsCYP6B7-313-1 dsRNA plus dsCyt-b5-4 dsRNA assessed as compound level per larva causing mortality after 36 hr
Helicoverpa armigera [38] = experiment: Insecticidal activity against fenvalerate-resistant Helicoverpa armigera HDFR third-instar larvae injected with dsCYP6B7-313-1 dsRNA plus dsCPR-403-1 dsRNA assessed as compound level per larva causing mortality after 36 hr
Helicoverpa armigera [39] = experiment: Insecticidal activity against fenvalerate-resistant Helicoverpa armigera HDFR third-instar larvae injected with dsCYP6B7-313-1 dsRNA assessed as compound level per larva causing mortality after 36 hr
Helicoverpa armigera [40] = experiment: Insecticidal activity against fenvalerate-resistant Helicoverpa armigera HDFR third-instar larvae injected with TE buffer assessed as compound level per larva causing mortality after 36 hr
Helicoverpa armigera [41] = experiment: Insecticidal activity against fenvalerate-resistant Helicoverpa armigera HDFR third-instar larvae without dsRNA injection assessed as compound level per larva causing mortality after 36 hr
Helicoverpa armigera [42] = experiment: Insecticidal activity against fenvalerate-resistant Helicoverpa armigera HDFR third-instar larvae injected with dsCYP6B7-313-1 dsRNA plus dsCPR-403-1 dsRNA and dsCyt-b5-4 dsRNA assessed as compound level per larva causing mortality after 24 hr
Helicoverpa armigera [43] = experiment: Insecticidal activity against fenvalerate-resistant Helicoverpa armigera HDFR third-instar larvae injected with dsCYP6B7-313-1 dsRNA plus dsCyt-b5-4 dsRNA assessed as compound level per larva causing mortality after 24 hr
Helicoverpa armigera [44] = experiment: Insecticidal activity against fenvalerate-resistant Helicoverpa armigera HDFR third-instar larvae injected with dsCYP6B7-313-1 dsRNA plus dsCPR-403-1 dsRNA assessed as compound level per larva causing mortality after 24 hr
Helicoverpa armigera [45] = experiment: Insecticidal activity against fenvalerate-resistant Helicoverpa armigera HDFR third-instar larvae injected with dsCYP6B7-313-1 dsRNA assessed as compound level per larva causing mortality after 24 hr
Helicoverpa armigera [46] = experiment: Insecticidal activity against fenvalerate-resistant Helicoverpa armigera HDFR third-instar larvae injected with TE buffer assessed as compound level per larva causing mortality after 24 hr
Helicoverpa armigera [47] = experiment: Insecticidal activity against fenvalerate-resistant Helicoverpa armigera HDFR third-instar larvae without dsRNA injection assessed as compound level per larva causing mortality after 24 hr

Structure (SMILES): CC(C)C(C(=O)OC(C#N)c1cccc(Oc2ccccc2)c1)c1ccc(Cl)cc1 (configuration not stated) [FENVALERATE]
- LD50 (Helicoverpa armigera [1]): 12.6 µg
- LD50 (Helicoverpa armigera [2]): 19 µg
- LD50 (Helicoverpa armigera [3]): 16.8 µg
- LD50 (Helicoverpa armigera [4]): 23.9 µg
- LD50 (Helicoverpa armigera [5]): 46.8 µg
- LD50 (Helicoverpa armigera [6]): 48.8 µg
- Ratio (Helicoverpa armigera [7]): 164
- LD50 (Helicoverpa armigera [8]): 16.13 µg
- LD50 (Helicoverpa armigera [9]): 0.0982 µg
- mortality (Helicoverpa armigera [10]): 44.4%
- mortality (Helicoverpa armigera [11]): 50%
- Ratio (Helicoverpa armigera [12]): 1.8
- mortality (Helicoverpa armigera [13]): 40.7%
- mortality (Helicoverpa armigera [14]): 38.8%
- Ratio (Helicoverpa armigera [15]): 3.2
- Ratio (Helicoverpa armigera [16]): 3.1
- Ratio (Helicoverpa armigera [17]): 2.4
- Ratio (Helicoverpa armigera [18]): 2
- Ratio (Helicoverpa armigera [19]): 3
- Ratio (Helicoverpa armigera [20]): 2.6
- Ratio (Helicoverpa armigera [21]): 2.9
- Ratio (Helicoverpa armigera [22]): 1.6
- Ratio (Helicoverpa armigera [23]): 3.5
- Ratio (Helicoverpa armigera [24]): 2.4
- Ratio (Helicoverpa armigera [25]): 2.9
- Ratio (Helicoverpa armigera [26]): 3.7
- Ratio (Helicoverpa armigera [27]): 2.5
- Ratio (Helicoverpa armigera [28]): 2.8
- Ratio (Helicoverpa armigera [29]): 2
- LD50 (Helicoverpa armigera [30]): 6.7 µg
- LD50 (Helicoverpa armigera [31]): 6.9 µg
- LD50 (Helicoverpa armigera [32]): 8.9 µg
- LD50 (Helicoverpa armigera [33]): 10.7 µg
- LD50 (Helicoverpa armigera [34]): 21.5 µg
- LD50 (Helicoverpa armigera [35]): 23.1 µg
- LD50 (Helicoverpa armigera [36]): 8.6 µg
- LD50 (Helicoverpa armigera [37]): 9.9 µg
- LD50 (Helicoverpa armigera [38]): 8.9 µg
- LD50 (Helicoverpa armigera [39]): 16.5 µg
- LD50 (Helicoverpa armigera [40]): 25.6 µg
- LD50 (Helicoverpa armigera [41]): 26.1 µg
- LD50 (Helicoverpa armigera [42]): 10.2 µg
- LD50 (Helicoverpa armigera [43]): 14.5 µg
- LD50 (Helicoverpa armigera [44]): 12.3 µg
- LD50 (Helicoverpa armigera [45]): 19.7 µg
- LD50 (Helicoverpa armigera [46]): 35.2 µg
- LD50 (Helicoverpa armigera [47]): 35.7 µg
